Converted amounts (≈) assume the structure as drawn.
Experiments:
[1] = target: T1, Leucine-rich repeat serine/threonine-protein kinase 2 (Homo sapiens, UniProt Q5S007); experiment: Inhibition of recombinant full-length LRRK2 (unknown origin) expressed in SH-SY5Y cells assessed as reduction in Ser935 phosphorylation after 60 mins by Alpha Screen assay; type: cell-based
[2] = target: T2, Mitogen-activated protein kinase kinase kinase kinase 3 (Homo sapiens) (UniProt Q8IVH8); experiment: Inhibition of MAP4K3 (unknown origin) at 1 uM by radioactivity-based enzymatic assay relative to control
T2 sequence (whole entry): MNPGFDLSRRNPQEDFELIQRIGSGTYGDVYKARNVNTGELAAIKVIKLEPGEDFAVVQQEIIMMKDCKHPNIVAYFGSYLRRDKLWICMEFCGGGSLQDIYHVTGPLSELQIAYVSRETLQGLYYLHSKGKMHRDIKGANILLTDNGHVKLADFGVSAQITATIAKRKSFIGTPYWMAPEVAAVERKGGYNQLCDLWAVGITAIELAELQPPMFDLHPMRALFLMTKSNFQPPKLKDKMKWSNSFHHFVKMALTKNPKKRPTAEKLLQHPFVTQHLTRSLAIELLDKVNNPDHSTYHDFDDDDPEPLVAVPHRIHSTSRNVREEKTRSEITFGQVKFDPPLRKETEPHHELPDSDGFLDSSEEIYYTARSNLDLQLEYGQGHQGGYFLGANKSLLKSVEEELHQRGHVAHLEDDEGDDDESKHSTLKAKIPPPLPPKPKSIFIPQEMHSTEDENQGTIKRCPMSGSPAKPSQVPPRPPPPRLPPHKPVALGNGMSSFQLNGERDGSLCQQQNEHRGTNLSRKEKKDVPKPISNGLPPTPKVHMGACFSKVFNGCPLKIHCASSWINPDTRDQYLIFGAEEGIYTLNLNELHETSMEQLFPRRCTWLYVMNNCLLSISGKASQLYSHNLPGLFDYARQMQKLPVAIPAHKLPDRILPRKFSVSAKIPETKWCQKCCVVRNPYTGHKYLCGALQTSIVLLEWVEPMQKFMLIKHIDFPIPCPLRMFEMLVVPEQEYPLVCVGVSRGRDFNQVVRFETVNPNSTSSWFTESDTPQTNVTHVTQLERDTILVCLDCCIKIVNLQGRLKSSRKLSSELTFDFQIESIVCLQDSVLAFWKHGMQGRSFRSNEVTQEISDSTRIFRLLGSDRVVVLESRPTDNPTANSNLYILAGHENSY

[3] = Lipophilicity, logD of compound at pH 7.4; details: buffer
[4] = target: Tyrosine-protein kinase JAK2 (Homo sapiens) (UniProt O60674); experiment: Inhibition of JAK2 (unknown origin) at 1 uM by radioactivity-based enzymatic assay relative to control
Tyrosine-protein kinase JAK2 (Homo sapiens), sequence (O60674 whole entry): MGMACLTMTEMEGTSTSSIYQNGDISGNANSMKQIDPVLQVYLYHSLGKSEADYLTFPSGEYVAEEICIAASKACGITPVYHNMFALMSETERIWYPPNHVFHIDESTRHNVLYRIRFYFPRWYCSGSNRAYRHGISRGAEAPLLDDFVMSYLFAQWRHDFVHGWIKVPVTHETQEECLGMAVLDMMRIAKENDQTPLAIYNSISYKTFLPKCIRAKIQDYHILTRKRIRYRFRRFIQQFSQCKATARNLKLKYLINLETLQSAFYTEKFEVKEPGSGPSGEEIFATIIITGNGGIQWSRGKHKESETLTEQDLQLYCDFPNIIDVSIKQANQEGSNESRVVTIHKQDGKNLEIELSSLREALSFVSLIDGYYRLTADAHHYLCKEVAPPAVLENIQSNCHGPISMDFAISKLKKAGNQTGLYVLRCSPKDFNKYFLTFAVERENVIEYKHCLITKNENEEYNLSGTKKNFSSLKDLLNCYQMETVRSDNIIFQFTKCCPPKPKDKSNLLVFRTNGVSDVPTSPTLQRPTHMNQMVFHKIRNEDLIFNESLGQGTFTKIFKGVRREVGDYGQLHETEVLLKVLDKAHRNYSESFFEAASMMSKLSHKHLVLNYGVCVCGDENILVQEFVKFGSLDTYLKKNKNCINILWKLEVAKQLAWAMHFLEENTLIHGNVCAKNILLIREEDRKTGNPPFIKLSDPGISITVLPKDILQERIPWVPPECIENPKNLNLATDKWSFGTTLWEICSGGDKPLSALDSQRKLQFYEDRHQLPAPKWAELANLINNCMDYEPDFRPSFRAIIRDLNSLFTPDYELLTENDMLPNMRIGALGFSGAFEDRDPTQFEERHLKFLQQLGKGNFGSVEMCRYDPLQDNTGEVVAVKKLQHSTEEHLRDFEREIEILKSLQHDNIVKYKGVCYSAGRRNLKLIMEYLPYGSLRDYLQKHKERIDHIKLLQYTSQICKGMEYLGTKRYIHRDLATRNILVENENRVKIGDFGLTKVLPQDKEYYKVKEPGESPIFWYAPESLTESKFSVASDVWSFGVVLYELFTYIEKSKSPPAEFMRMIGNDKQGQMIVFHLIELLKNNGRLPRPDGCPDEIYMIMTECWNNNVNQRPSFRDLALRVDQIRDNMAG

[5] = target: T3, Interleukin-1 receptor-associated kinase 4 (Homo sapiens) (UniProt Q9NWZ3); experiment: Inhibition of IRAK4 (unknown origin) at 1 uM by radioactivity-based enzymatic assay relative to control
T3 sequence (whole entry): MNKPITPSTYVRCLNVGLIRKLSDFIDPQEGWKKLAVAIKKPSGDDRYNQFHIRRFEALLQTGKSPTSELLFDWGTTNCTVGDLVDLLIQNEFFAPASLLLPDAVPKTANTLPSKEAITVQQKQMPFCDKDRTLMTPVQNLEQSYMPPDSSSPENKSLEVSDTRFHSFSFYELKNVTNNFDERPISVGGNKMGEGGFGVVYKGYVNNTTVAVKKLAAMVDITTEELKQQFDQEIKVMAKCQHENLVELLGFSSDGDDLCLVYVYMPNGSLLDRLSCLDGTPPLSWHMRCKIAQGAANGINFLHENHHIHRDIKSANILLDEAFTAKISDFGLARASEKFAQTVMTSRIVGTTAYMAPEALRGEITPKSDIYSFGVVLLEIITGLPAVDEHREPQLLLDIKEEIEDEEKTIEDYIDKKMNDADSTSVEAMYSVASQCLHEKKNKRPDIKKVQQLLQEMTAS

[6] = target: Tyrosine-protein kinase SYK (Homo sapiens) (UniProt P43405); experiment: Inhibition of SYK (unknown origin) at 1 uM by radioactivity-based enzymatic assay relative to control
[7] = target: Mitogen-activated protein kinase kinase kinase 9 (Homo sapiens) (UniProt P80192); experiment: Inhibition of MLK1 (unknown origin) at 1 uM by radioactivity-based enzymatic assay relative to control
Mitogen-activated protein kinase kinase kinase 9 (Homo sapiens), sequence (P80192 whole entry, looked up): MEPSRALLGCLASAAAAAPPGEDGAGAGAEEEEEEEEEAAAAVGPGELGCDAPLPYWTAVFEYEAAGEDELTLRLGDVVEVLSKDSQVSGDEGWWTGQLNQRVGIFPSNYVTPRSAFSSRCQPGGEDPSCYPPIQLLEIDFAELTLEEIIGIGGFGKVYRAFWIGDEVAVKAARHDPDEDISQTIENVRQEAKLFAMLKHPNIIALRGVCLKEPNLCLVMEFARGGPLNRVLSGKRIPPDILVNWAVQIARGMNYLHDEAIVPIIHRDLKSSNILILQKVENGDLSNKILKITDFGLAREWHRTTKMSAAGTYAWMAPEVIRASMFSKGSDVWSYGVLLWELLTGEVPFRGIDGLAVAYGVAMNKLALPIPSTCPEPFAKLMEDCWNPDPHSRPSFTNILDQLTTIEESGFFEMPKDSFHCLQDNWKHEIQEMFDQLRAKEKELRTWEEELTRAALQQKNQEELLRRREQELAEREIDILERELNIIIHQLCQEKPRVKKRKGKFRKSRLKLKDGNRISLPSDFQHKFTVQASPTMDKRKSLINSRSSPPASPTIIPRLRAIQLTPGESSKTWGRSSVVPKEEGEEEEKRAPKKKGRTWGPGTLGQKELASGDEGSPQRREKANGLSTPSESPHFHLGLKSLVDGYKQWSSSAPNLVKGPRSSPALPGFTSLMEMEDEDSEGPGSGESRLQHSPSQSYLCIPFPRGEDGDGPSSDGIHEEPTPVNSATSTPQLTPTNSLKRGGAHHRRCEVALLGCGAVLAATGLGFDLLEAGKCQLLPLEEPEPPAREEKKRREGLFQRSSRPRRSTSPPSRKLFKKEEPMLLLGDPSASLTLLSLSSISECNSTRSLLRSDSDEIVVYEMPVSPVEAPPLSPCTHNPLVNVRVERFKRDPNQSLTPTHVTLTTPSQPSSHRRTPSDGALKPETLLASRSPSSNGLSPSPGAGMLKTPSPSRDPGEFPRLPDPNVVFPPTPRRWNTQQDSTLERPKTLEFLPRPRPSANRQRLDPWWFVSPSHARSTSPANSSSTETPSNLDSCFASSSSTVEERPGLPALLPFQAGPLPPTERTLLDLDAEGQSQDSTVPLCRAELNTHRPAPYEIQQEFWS

[8] = Solubility of the compound in FaSSIF measured after 4 hrs; type: physicochemical
[9] = Artificial membrane permeability by PAMPA method; type: ADME; details: read-out: permeability
[10] = target: T1, Leucine-rich repeat serine/threonine-protein kinase 2; experiment: Inhibition of recombinant His6-Tev-LRRK2 (1326 to 2527 residues) (unknown origin) using LRRKtide as substrate preincubated for 30 mins followed by substrate addition and measured after 2 hrs in presence of ATP by TR-FRET assay
[11] = Metabolic stability in human liver microsomes assessed as intrinsic clearance; type: ADME, Microsome
[12] = Permeability ratio across apical side to basolateral side in MDCK2 cells transfected with Bacmam virus containing human BCRP at 3 uM after 90 mins in presence or absence of GF120918 by transwell assay; type: ADME, cell-based, Canis lupus familiaris; details: dog, mdck-ii, 1.5 h
[13] = Dose normalized AUC (0 to t) in Han-Wistar rat blood at 2 mg/kg, po measured up to 7 hrs by UPLC-MS/MS analysis; type: ADME, organism-based; details: in vivo
[14] = Ratio of total drug concentration in brain to blood in Han-Wistar rat at 2 mg/kg, po; type: ADME, organism-based
[15] = Dose normalized AUC (0 to t) in Han-Wistar rat brain at 2 mg/kg, po measured up to 7 hrs by UPLC-MS/MS analysis; type: ADME, organism-based; details: in vivo
[16] = Unbound fraction in Han-Wistar rat brain at 2 mg/kg, po; type: ADME, organism-based

T1 sequence (Q5S007 whole entry): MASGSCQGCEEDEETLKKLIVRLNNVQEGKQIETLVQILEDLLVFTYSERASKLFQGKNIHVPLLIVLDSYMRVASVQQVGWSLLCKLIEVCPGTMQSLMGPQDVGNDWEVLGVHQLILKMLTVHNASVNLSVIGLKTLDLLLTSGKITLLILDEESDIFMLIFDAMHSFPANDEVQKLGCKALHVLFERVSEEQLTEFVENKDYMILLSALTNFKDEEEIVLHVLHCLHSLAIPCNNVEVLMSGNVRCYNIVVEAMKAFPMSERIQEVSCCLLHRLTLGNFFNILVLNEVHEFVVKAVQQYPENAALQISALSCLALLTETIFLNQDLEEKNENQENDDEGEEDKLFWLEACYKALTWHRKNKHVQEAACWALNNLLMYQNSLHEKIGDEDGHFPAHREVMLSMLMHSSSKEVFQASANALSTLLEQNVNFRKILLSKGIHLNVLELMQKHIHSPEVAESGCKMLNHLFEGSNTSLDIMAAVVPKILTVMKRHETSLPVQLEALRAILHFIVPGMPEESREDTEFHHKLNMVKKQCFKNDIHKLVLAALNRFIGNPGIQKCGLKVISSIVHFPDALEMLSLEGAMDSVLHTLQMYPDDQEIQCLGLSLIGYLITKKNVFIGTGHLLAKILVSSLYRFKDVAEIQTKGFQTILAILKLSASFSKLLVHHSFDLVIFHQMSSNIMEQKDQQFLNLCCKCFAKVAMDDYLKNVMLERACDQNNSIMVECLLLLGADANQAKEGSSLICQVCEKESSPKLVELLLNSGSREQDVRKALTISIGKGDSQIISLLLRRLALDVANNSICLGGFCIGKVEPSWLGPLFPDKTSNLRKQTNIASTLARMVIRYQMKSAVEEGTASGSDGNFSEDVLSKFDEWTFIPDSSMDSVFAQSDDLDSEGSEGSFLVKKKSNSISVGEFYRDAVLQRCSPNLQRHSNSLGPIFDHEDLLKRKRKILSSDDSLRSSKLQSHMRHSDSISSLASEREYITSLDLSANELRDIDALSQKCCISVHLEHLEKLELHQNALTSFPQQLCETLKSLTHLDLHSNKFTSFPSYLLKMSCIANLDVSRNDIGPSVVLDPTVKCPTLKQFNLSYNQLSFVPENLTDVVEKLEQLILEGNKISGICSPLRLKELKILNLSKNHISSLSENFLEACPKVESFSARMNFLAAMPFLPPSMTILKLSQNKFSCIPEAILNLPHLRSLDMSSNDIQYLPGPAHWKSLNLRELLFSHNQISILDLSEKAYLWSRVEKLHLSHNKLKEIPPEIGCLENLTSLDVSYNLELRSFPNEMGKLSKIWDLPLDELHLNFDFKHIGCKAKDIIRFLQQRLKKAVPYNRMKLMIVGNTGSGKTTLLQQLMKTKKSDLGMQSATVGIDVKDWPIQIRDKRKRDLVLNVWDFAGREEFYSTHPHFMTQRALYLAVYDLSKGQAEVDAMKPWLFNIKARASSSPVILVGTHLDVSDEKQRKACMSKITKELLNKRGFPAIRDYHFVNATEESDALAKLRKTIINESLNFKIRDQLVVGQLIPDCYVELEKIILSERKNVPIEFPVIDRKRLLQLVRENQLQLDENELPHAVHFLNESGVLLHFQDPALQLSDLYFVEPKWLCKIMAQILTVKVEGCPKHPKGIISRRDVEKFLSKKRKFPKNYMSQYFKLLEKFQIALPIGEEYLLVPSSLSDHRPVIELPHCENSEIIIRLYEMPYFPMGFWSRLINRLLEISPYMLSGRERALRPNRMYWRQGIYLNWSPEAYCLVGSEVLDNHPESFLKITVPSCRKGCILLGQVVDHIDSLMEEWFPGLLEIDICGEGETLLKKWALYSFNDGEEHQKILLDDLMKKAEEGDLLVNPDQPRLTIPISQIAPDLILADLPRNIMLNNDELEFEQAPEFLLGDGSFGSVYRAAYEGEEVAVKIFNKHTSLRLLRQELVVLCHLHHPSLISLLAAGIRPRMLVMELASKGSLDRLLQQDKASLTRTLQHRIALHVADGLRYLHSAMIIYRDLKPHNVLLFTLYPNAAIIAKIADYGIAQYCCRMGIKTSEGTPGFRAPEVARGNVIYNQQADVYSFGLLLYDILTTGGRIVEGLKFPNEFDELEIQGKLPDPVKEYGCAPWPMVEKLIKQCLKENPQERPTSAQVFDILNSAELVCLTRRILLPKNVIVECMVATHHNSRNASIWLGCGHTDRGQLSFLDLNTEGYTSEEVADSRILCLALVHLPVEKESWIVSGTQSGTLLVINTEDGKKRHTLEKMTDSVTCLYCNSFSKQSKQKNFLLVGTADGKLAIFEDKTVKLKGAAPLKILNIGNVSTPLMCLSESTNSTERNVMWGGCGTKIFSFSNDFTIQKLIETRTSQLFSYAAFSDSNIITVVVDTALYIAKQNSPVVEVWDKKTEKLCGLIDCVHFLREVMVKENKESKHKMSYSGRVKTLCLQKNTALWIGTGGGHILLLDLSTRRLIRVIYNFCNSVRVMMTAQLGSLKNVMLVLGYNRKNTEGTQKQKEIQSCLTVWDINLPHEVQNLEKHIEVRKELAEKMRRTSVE

IC50 [1] [nM] | logD [3] | solubility at 4 h [8] [µg/mL] | IC50 [10] [nM] | CLH [11] [mL/min/g] | Structure (SMILES) | also measured
63.1 | 3.9 | 1.7 (≈ 4.63 µM) | 7.94 | – | CCOc1nc(Nc2ccc(C(=O)N3CCOCC3)cc2)nc2[nH]ccc12 | inhibition [2]: > 50%; inhibition [4]: > 50%; inhibition [5]: > 50%; inhibition [6]: > 50%; inhibition [7]: > 50%; Papp [9]: 51 ×10⁻⁶ cm/s
79.4 | 5.1 | 78.8 (≈ 192 µM) | 15.8 | 0.8 | CCOc1nc(Nc2ccc(C(=O)N3CCOC[C@H]3C)cc2OC)nc2[nH]ccc12 | Ratio [12]: 2.2
631 | – | – | 12.6 | – | CCOc1nc(Nc2ccc(C(=O)N3CCOCC3)cc2OC(C)C)nc2[nH]ccc12 | –
100 | 5 | 154 (≈ 374 µM) | 7.94 | 1.4 | CCOc1nc(Nc2ccc(C(=O)N3CCOC[C@@H]3C)cc2OC)nc2[nH]ccc12 | Ratio [12]: 1.8
251 | – | – | 12.6 | – | CCOc1nc(Nc2ccc(C(=O)N3CCN(C)CC3)cc2Cl)nc2[nH]ccc12 | –
158 | 4.3 | 6.2 (≈ 15.1 µM) | 63.1 | 1.1 | CCOc1nc(Nc2ccc(C(=O)N3CC4(COC4)C3)cc2OC)nc2[nH]ccc12 | –
– | 4.9 | 309 (≈ 709 µM) | – | 3.2 | CCOc1nc(Nc2ccc(C(=O)N3CCN4CCC[C@H]4C3)cc2OC)nc2[nH]ccc12 | –
316 | – | 39.7 (≈ 96 µM) | 6.31 | 1.1 | CCOc1nc(Nc2ccc(C(=O)N3CCC(F)CC3)cc2OC)nc2[nH]ccc12 | –
50.1 | 2.8 | 8.6 (≈ 24.6 µM) | 12.6 | – | NC(=O)c1ccc(Nc2nc(NCC(F)(F)F)c3cc[nH]c3n2)cc1 | inhibition [2]: > 50%; inhibition [4]: > 50%; inhibition [5]: > 50%; inhibition [6]: > 50%; inhibition [7]: > 50%; Papp [9]: 3.6 ×10⁻⁶ cm/s
158 | – | – | < 0.158 | – | CCOc1nc(Nc2ccc(C(=O)N3CCN(C)CC3)cc2OC(F)F)nc2[nH]ccc12 | –
126 | – | – | 10 | – | CCOc1cc(C(=O)N2CCN(C)CC2)ccc1Nc1nc(OCC)c2cc[nH]c2n1 | –
200 | 5.7 | 4.4 (≈ 10.3 µM) | 63.1 | 1.5 | CCOc1nc(Nc2ccc(C(=O)N3C[C@@H](C)O[C@@H](C)C3)cc2OC)nc2[nH]ccc12 | –
63.1 | 3 | 621 (≈ 1380 µM) | 6.31 | < 0.777 | CCOc1nc(Nc2ccc(C(=O)N3CCC4(CC3)CN(C)C4)cc2OC)nc2[nH]ccc12 | Ratio [12]: 5
3160 | – | – | 200 | – | CCOc1nc(Nc2ccc(C(=O)N3CCN(C)CC3)cc2N(C)C)nc2[nH]ccc12 | –
– | 4.9 | 300 (≈ 687 µM) | – | 2.5 | CCOc1nc(Nc2ccc(C(=O)N3CCN4CCC[C@@H]4C3)cc2OC)nc2[nH]ccc12 | AUCt/dose [13]: 487 ng·h/g/mg/kg; Kp [14]: 0.51; AUCt/dose [15]: 246 ng·h/g/mg/kg; fraction unbound [16]: < 0.005
158 | – | – | 12.6 | – | CCOc1nc(Nc2ccc(C(=O)N3CCN(C)CC3)cc2F)nc2[nH]ccc12 | –
– | – | – | 15.8 | – | CCOc1nc(Nc2ccc(C(=O)N3CCN(C)CC3)cc2OC)nc2[nH]ccc12 | –
126 | 4.1 | 25.5 (≈ 63.8 µM) | 12.6 | 0.8 | CCOc1nc(Nc2ccc(C(=O)NCC(C)(C)O)cc2OC)nc2[nH]ccc12 | Ratio [12]: 3.8
79.4 | – | – | 12.6 | – | CCOc1nc(Nc2ccc(C(=O)N3CCN(C)CC3)cc2)nc2[nH]ccc12 | –
